In publication PMC12320284, “Biochemical and biological evaluation of L-glutaminase from Aspergillus tamarii AUMC 10198 via solid-state fermentation” (Microbial Cell Factories, 2025) one finds Km data, which are given here for one compound.

For the assay, the system named is T1, L-glutaminase (Aspergillus tamarii AUMC 10198).
T1 construct: gene gtaA; approx. 62 kDa by SDS-PAGE, single band
In words: Nesslerization ammonia assay, […] nm; Lineweaver-Burk plot. The assay is classed as biochemical. Conditions: standard assay conditions (0.1 M citrate-phosphate pH 7, 30 °C, 30 min as described for the crude enzyme); 0.2-2.0 mg/ml L-glutamine; apparent Km.

For `NC(=O)CC[C@H](N)C(=O)O` [L-glutamine], the Km came out at 0.28 mg/mL.

What is called Km is the substrate concentration at which the rate is half of its maximum.
